Assay results reported in publication PMC8397418, “Novel Bis-Thiazole Derivatives: Synthesis and Potential Cytotoxic Activity Through Apoptosis With Molecular Docking Approaches” (Frontiers in Chemistry, 2021).
“Also recorded” adds a separate entry of the source. Where two headings read alike, the source gives them in different places.

Experiments:
[1] = test system: Hela cervical cancer cells; experiment: MTT cytotoxicity assay, Hela; type: cell-based; details: Homo sapiens, 72 h
Protocol: (§1) The synthesized derivatives were screened for their cytotoxic activities against five cancer cell lines (two breast cancer cell lines: MCF-7 and MDA-MB-231, two ovarian cancer cell lines: A2780 and KF-28, and one cervical cancer cell line: Hela). This study was performed using serial concentrations of 25, 50, 100, 150, and 200 µM of each compound using the MTT assay. Percentages of cell viability of the tested compounds with serial concentration against the tested panel of cell lines are depicted in Figure 1, in which there is a decrease in the cell viability with increasing concentrations in a dose–response pattern. […] Therefore, compounds 5a, 5b, and 5f were thought worthwhile to further investigate their effects as either cytotoxic or antiproliferative effects and whether any of them is an inducer of apoptotic cell death in the representative cancer cell lines KF-28 and A2780.
(§2) The human ovarian serous carcinoma cell line KF-28 was kindly provided by Prof. Yoshihiro Kikuchi (Department of Obstetrics and Gynecology, National Defense Medical College, Saitama, Japan), and A2780 cell line was purchased from the ECACC (ECACC 93112519). The cells were maintained in RPMI-1640 (Sigma-Aldrich, United States). The cervical cancer cell line, Hela cells, breast cancer cell line, MCF-7, and MDA-MB-231 were purchased from the ATCC and cultured in DMEM. Both types of media were supplemented with 2 mM L-glutamine (Lonza, Belgium), 10% FBS (Sigma, St. Louis, MO, United States), and 1% penicillin/streptomycin (Lonza, Belgium). All cells were incubated at 37°C in 5% CO2 atmosphere (NuAire). All cancer cell lines were cultured according to the routine tissue culture work as discussed by the Freshney group ([Freshney, 2010]). The cells were plated at a density of 5,000 cells in triplicates in a 96-well plate. On the next day, the cells were treated with the indicated compound(s) at the indicated concentrations in a final volume of 100 μL media. Cell viability was assessed after 72 h using MTT solution (Promega) ([Mosmann, 1983]). 20 μL of the reagent was added to each well, the plate was incubated for 3 h, […] was subsequently measured (570 nm) using a plate reader, and then the IC50 values were calculated using Excel ([Tantawy et al., 2020]).

[2] = test system: MCF-7 breast cancer cells; experiment: MTT cytotoxicity assay, MCF-7; type: cell-based, human; details: read-out: IC50 MCF-7 (Breast)
Protocol: as §1, §2

[3] = test system: MEF normal mouse embryonic fibroblast; experiment: MTT cytotoxicity assay, MEF; type: cell-based; details: n = 3
C-myc in KF-28 cells = experiment: Western blot of C-myc expression; type: cell-based, human; details: two days, vs DMSO
From the text: Pim-1 has been classified as a weak oncogene. However, a very strong synergism with regard to tumorigenicity occurs between Pim-1 and C-myc. This synergism is observed with bitransgenic mice overexpressing C-myc and Pim-1 in lymphoid tissue ([Möröy et al., 1991]). To further validate the simulation and docking data which introduced Pim-1 kinase as a potential target molecule for some of the tested compounds, we decided to check the effect of treatment with the selected compounds on the C-myc protein expression as a downstream target molecule known to be phosphorylated and stabilized by Pim-1 as a kinase ([Zhang et al., 2008]). […] Taking into consideration the fact that Pim-1 phosphorylates C-myc and controls its stability ([Zhang et al., 2008]) may conclude that the reduction of C-myc expression under the indicated compounds is due to the inhibition of Pim-1 activity (Figure 3). Therefore, the speculated inhibition of Pim-1 is supported by the above-mentioned qPCR data (Figure 3) and further supported by C-myc downregulation. Our results agree with the reported one which states that some thiazole derivatives are potent inhibitors against protein kinases including Pim-1 kinase ([Mohareb et al., 2019]).
Cell lysates were prepared by lysing cells in RIPA buffer (10 mM Tris (pH 7.4), 150 mM NaCl, 1% Triton X-100, 1% Na deoxycholate), supplemented with protease inhibitor cocktail (Sigma). Protein concentration of whole cell lysates was determined by the […] using the BSA kit (Pierce), and then equal protein amounts were heated to 95 °C for 5 min with sodium dodecyl sulfate (SDS) sample buffer (25 ml glycerol, 31.2 ml Tris buffer, 7.5 ml SDS, a dash of bromophenol blue/100 ml) and run on 15% SDS polyacrylamide gel electrophoresis (SDS-PAGE). Protein samples were then blotted onto PVDF membranes (Immobilon P, Watford, United Kingdom). The membranes were incubated in blocking solution (5% non-fat milk in PBS) for 1 h and then in primary antibody (anti-human C-myc pAb (Abcam; at dilution of 2:1,000) or GAPDH mAb (Santa Cruz; at dilution of 20:1,000)) overnight. After 3 × 10 min washes in TBS (0.1% Tween-20 in PBS), the membrane was incubated for 1 h at room temperature with horseradish-peroxidase–linked (HRP) secondary anti-rabbit or anti-mouse Ab (1:1,000 dilution in PBS). Signals on the membrane were developed using ECL reagent (Amersham, CA, United States) and then were imaged with the Chemidoc system (Bio-Rad, United States).

[4] = test system: MDA-MB-231 breast cancer cells; experiment: MTT cytotoxicity assay, MDA-MB-231; type: cell-based; details: Homo sapiens, read-out: IC50 MDA-MB-231 (Breast)
Protocol: as §1, §2

[5] = test system: A2780 ovarian cancer cells; experiment: MTT cytotoxicity assay, A2780; type: cell-based, human; details: read-out: IC50 A2780 (Ovarian)
Protocol: as §1, §2

[6] = test system: KF-28 ovarian cancer cells; experiment: MTT cytotoxicity assay, KF-28; type: cell-based, human; details: 72 h, read-out: IC50 KF-28 (Ovarian)
Protocol: as §1, §2

KF-28 cells [7] = experiment: Annexin V-FITC/PI apoptosis assessment; type: cell-based, human; details: 48 h, cisplatin 10 μM, DMSO control 0.45%
Protocol: Therefore, we decided to use such technique to investigate if the cytotoxic effect of the compounds indicated by MTT and the cell cycle experiments is apoptotic cell death or not. For that purpose, two cell lines, KF-28 and A2780, were stained by annexin V/PI after treatment with different compounds vs. DMSO for two days in parallel with cisplatin as a reference drug. Results from annexin staining analysis show appreciated annexin V–stained populations when cells are treated with compounds 5a–c, 5f, and 9. […] Similar results were obtained from the other cell line, A2780, treated with the same compounds (Figure 2B).
(§3) The cells were seeded into six-well culture plates (3–5 × 10^5 cells/well) and incubated overnight at 37°C, under 5% CO2. The cells were then treated with indicated compounds for 48 h. Next, media supernatants and the cells were collected and washed with ice-cold PBS. Next, the cells were stained with PI (10 mg/ml) for 30 min and analyzed for DNA contents using flow cytometry analysis using an FL2 (λex/em 535/617 nm) signal detector (ACEA Novocyte™ flow cytometer, ACEA Biosciences, Inc., San Diego, CA, United States). For each sample, 12,000 events are acquired. Cell cycle distribution is calculated using a CytoFLex machine and analyzed by CytExpert software. Flow cytometric methodologies (annexin V/PI staining with cell cycle analyses) are carried out as previously described ([Nafie et al., 2020a]; [Nafie et al., 2020b]; [Gad et al., 2020]).

KF-28 cells [8] = experiment: DNA content and cell cycle analysis (PI, flow cytometry); type: cell-based, human; details: 200 µM, 48 h
Protocol: Studying the cell cycle phases by measuring DNA content is a crucial test that helps in evaluating the impact of a given drug(s) on dividing cells and may reflect the mechanism through which this drug(s) affects those cells. […] Compounds 5a, 5b, 5c, 5f, 5g, and 9 were added to similar numbers of cells at 200 µM for 48 h, and then, the different cell cycle phases were assessed by flow cytometric analysis.
as §3

[9] = MTT, n = 3, read-out: IC50 Hela (Cervical)
[10] = Homo sapiens, MCF7, MTT, 72 h, n = 3
[11] = Homo sapiens, A2780, MTT, 72 h, n = 3

Q: For `Clc1ccc(-c2csc(=NN=C3CCC(=NN=c4[nH]c(-c5ccc(Cl)cc5)cs4)CC3)[nH]2)cc1` [13d, 1,4-Bis((4-(4-chlorophenyl)thiazol-2-ylidene)hydrazono)cyclohexane], which IC50 [1, 9] is on record?
A: > 200 µM

Q: And the IC50 [2, 10]?
A: > 200 µM

Q: And the melting point?
A: 230 to 231 °C

Q: Which melting point does the source give for `O=C1NC(=NN=C2CCC(=NN=C3NC(=O)C(=Cc4ccc(Cl)cc4)S3)CC2)SC1=Cc1ccc(Cl)cc1` [14c, 1,4-Bis((5-(4-chlorobenzylidene)-4-oxo-thiazolidin-2-ylidene)hydrazono)cyclohexane] here?
A: > 300 °C

Q: Which results are given for `Cc1[nH]c(=NN=C2CCC(=NN=c3[nH]c(C)c(N=Nc4ccc(Cl)cc4)s3)CC2)sc1N=Nc1ccc(Cl)cc1` [5c, 1,4-Bis((5-(4-chlorophenylazo)-4-methylthiazol-2-ylidene)hydrazono)cyclohexane]?
A: IC50 [3]: > 200 µM; IC50 [1, 9]: < 25 µM; C-myc protein expression (Western blot) (C-myc in KF-28 cells): observable downregulation; also recorded: Appreciated downregulation; IC50 ([4]; MDA-MB-231, MTT, 72 h, n = 3): 116 µM

Q: What does the source list for `O=c1oc2ccccc2cc1-c1csc(=NN=C2CCC(=NN=c3[nH]c(-c4cc5ccccc5oc4=O)cs3)CC2)[nH]1` [13c, 1,4-Bis((4-(3-coumarinyl)thiazol-2-ylidene)hydrazono)cyclohexane]?
A: IC50 [1, 9]: > 200 µM; IC50 [5, 11]: 33.5 µM; IC50 [2, 10]: 178 µM; melting point: 241 to 242 °C; IC50 ([6]; Homo sapiens, MTT, n = 3): 85.7 µM

Q: For `O=C1NC(=NN=C2CCC(=NN=C3NC(=O)C(=Cc4ccccc4)S3)CC2)SC1=Cc1ccccc1` [14a, 1,4-Bis((5-benzylidene-4-oxo-thiazolidin-2-ylidene)hydrazono)cyclohexane], which melting point is on record?
A: > 300 °C

Q: Which melting point does the source give for `O=C1NC(=NN=C2CCC(=NN=C3NC(=O)C(=Cc4ccc(Br)cc4)S3)CC2)SC1=Cc1ccc(Br)cc1` [14d, 1,4-Bis((5-(4-bromobenzylidene)-4-oxo-thiazolidin-2-ylidene)hydrazono)cyclohexane] here?
A: 290 to 291 °C

Q: For `Cc1ccc(C=C2SC(=NN=C3CCC(=NN=C4NC(=O)C(=Cc5ccc(C)cc5)S4)CC3)NC2=O)cc1` [14b, 1,4-Bis((5-(4-methylbenzylidene)-4-oxo-thiazolidin-2-ylidene)hydrazono)cyclohexane], which melting point is on record?
A: 269 to 270 °C

Q: For `Cc1[nH]c(=NN=C2CCC(=NN=c3[nH]c(C)c(N=Nc4ccc([N+](=O)[O-])cc4)s3)CC2)sc1N=Nc1ccc([N+](=O)[O-])cc1` [5d, 1,4-Bis((5-(4-nitrophenylazo)-4-methylthiazol-2-ylidene)hydrazono)cyclohexane], which IC50 ([1]; read-out: IC50 Hela (Cervical)) is on record?
A: > 200 µM

Q: What about the IC50 ([5]; Homo sapiens, A2780, 72 h) of the same compound?
A: > 200 µM

Q: And the IC50 ([2]; Homo sapiens, MCF7, 72 h)?
A: > 200 µM

Q: And the melting point?
A: > 300 °C

Q: And the IC50 ([6]; Homo sapiens)?
A: > 200 µM

Q: And the IC50 ([4]; MDA-MB-231, 72 h)?
A: > 200 µM

Q: With `Cc1ccccc1N=Nc1sc(=NN=C2CCC(=NN=c3[nH]c(C)c(N=Nc4ccccc4C)s3)CC2)[nH]c1C` [5e, 1,4-Bis((5-(2-tolylazo)-4-methylthiazol-2-ylidene)hydrazono)cyclohexane] as the compound, how does the IC50 [1, 9] read?
A: > 200 µM

Q: What about the IC50 [5, 11] of the same compound?
A: 70.6 µM

Q: What about the IC50 [2, 10] of the same compound?
A: < 25 µM

Q: What about the IC50 ([6]; Homo sapiens, MTT, n = 3) of the same compound?
A: > 200 µM

Q: And the IC50 ([4]; MDA-MB-231, MTT, 72 h, n = 3)?
A: > 200 µM

Q: For `CC(=O)c1sc(=NN=C2CCC(=NN=c3[nH]c(C)c(C(C)=O)s3)CC2)[nH]c1C` [compound 11, 1,4-Bis((5-acetyl-4-methylthiazol-2-ylidene)hydrazono)cyclohexane], which melting point is on record?
A: 280 to 281 °C

Q: Which IC50 [3] does the source give for `O=C1CSC(=NN=C2CCC(=NN=C3NC(=O)CS3)CC2)N1` [compound 9, 1,4-Bis((4-oxo-thiazolidin-2-ylidene)hydrazono)cyclohexane] here?
A: 1.06 µM

Q: And the IC50 [1, 9]?
A: 111 µM

Q: And the “Total apoptotic cell death (annexin V-positive cells)” value (KF-28 cells [7])?
A: did not induce appreciated apoptosis

Q: And the IC50 [5, 11]?
A: 103 µM

Q: And the IC50 [2, 10]?
A: > 200 µM

Q: And the “Cell cycle phase S population” value (KF-28 cells [8])?
A: 6.5%

Q: And the “Cell cycle phase G1 population” value (KF-28 cells [8]; DMSO control 72%)?
A: 78%

Q: What about the IC50 ([6]; Homo sapiens, MTT, n = 3) of the same compound?
A: 86.5 µM

Q: What about the IC50 ([4]; MDA-MB-231, MTT, 72 h, n = 3) of the same compound?
A: > 200 µM

Q: Which results are given for `N.N.[Cl][Pt][Cl]` [Cisplatin, cisplatin, reference compound]?
A: Total apoptotic cell death (annexin V-positive cells) (KF-28 cells [7]): 25%; IC50 ([5]; MTT, 72 h, n = 3): 1.56 µM; IC50 ([2]; MTT, 72 h, n = 3): 1.21 µM; IC50 ([6]; MTT, n = 3): 9.29 µM

Q: With `c1ccc2oc(-c3csc(=NN=C4CCC(=NN=c5[nH]c(-c6cc7ccccc7o6)cs5)CC4)[nH]3)cc2c1` [13b, 1,4-Bis((4-(2-benzofuryl)thiazol-2-ylidene)hydrazono)cyclohexane] as the compound, how does the melting point read?
A: 269 to 270 °C

Q: What does the source list for `c1ccc2sc(-c3csc(=NN=C4CCC(=NN=c5[nH]c(-c6nc7ccccc7s6)cs5)CC4)[nH]3)nc2c1` [13a, 1,4-Bis((4-(2-benzothiazolyl)thiazol-2-ylidene)hydrazono)cyclohexane]?
A: IC50 [1, 9]: > 200 µM; IC50 [5, 11]: 27.2 µM; IC50 [2, 10]: > 200 µM; melting point: > 300 °C; IC50 ([6]; Homo sapiens, MTT, n = 3): > 200 µM; IC50 ([4]; MDA-MB-231, MTT, 72 h, n = 3): > 200 µM
